“And” between values parts separate entries of the source, which are not always exact repeats. Identical values can stand only once.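 Step 1: Grow cells in 96-well plates. Step 2: Expose to compound for 48 hours at 5 concentrations. Step 3: Interpolate endpoints linearly; if unreached, use highest concentration. GI50: concentration for 50% inhibition of growth. TGI marks complete inhibition of growth.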 Where a SMILES comes first, the peptide text is derived from it. [ ]: non-standard residue; d: D form. The star is where a group is joined. Phe(4-NO2) = N[CH](Cc1ccc([N+](=O)[O-])cc1)C(=O)O; Boc = CC(C)(C)OC(=O)*; OtBu = CC(C)(C)O*
Legend:
Assay in all cases: DTP human tumour cell line panel, 48 h
OVCAR-5 ovarian = test system: OVCAR-5 ovarian
MCF7 breast = test system: MCF7 breast
COLO 205 colon = test system: COLO 205 colon
CAKI-1 renal = test system: CAKI-1 renal
MDA-N = test system: MDA-N
SR leukemia = test system: SR leukemia
HS 578T breast = test system: HS 578T breast
SF-539 CNS = test system: SF-539 CNS
HOP-92 NSCLC = test system: HOP-92 NSCLC
OVCAR-8 ovarian = test system: OVCAR-8 ovarian

| Compound | TGI (OVCAR-5 ovarian) | TGI (MCF7 breast) | TGI (COLO 205 colon) | TGI (CAKI-1 renal) | TGI (MDA-N) | TGI (SR leukemia) | TGI (HS 578T breast) | TGI (SF-539 CNS) | TGI (HOP-92 NSCLC) | TGI (OVCAR-8 ovarian) | GI50 (OVCAR-5 ovarian) | GI50 (COLO 205 colon) | GI50 (HOP-92 NSCLC) | GI50 (CAKI-1 renal) | GI50 (MDA-N) | GI50 (HS 578T breast) | GI50 (SF-539 CNS) | GI50 (OVCAR-8 ovarian) |
| --- | --- | --- | --- | --- | --- | --- | --- | --- | --- | --- | --- | --- | --- | --- | --- | --- | --- | --- |
| COC(=O)CNC(=O)/C=C/[C@H](O[Si](C)(C)C(C)(C)C)[C@H](/C=C/C(=O)NCC(=O)OC)O[Si](C)(C)C(C)(C)C | > 25 µM | > 25 µM | > 25 µM | > 25 µM | > 25 µM | > 25 µM | > 25 µM | > 25 µM | > 25 µM | > 25 µM |  |  |  |  |  |  |  |  |
| C=CCN1C(=O)/C(=C/c2ccc(Cl)cc2)N=C1SC1OC(COC(C)=O)C(OC(C)=O)C(OC(C)=O)C1OC(C)=O (centres undefined) | > 100 µM | > 100 µM | > 100 µM | 28.3 µM and > 100 µM | > 100 µM | > 100 µM and 36.6 µM | 9.79 µM | > 100 µM | 66.5 µM and 31.4 µM | 36 µM and 81.4 µM | > 66.9 µM and 32.7 µM | > 89.5 µM and 31.9 µM | 22 µM and 3.62 µM |  |  |  |  |  |
| CN1C/C(=C\c2ccccc2[N+](=O)[O-])C(=O)/C(=C/c2ccccc2[N+](=O)[O-])C1 | 10.3 µM and 3.87 µM | 1.94 µM and 3.04 µM | 0.865 µM and 0.387 µM | 1.41 µM and 0.545 µM | 2.91 µM and 1.16 µM | 13.2 µM and 7.93 µM | 24 µM and 3.42 µM | 2.3 µM and 3.86 µM | 2.75 µM and 2.61 µM | 0.328 µM and 1.85 µM | 3.27 µM and 1.05 µM |  |  | 0.475 µM and 0.234 µM | 0.783 µM and 0.298 µM | 1.97 µM and 0.759 µM | 0.53 µM and 1.13 µM | 0.175 µM and 0.517 µM |
| CCOP(=O)(OCC)C(F)(F)CC1CCCCC1 | > 10 µM | > 10 µM | > 10 µM | > 10 µM | > 10 µM | > 10 µM | > 10 µM | > 10 µM | > 10 µM | > 10 µM |  |  |  |  |  |  |  |  |
| COc1ccc(C=O)cc1Oc1ccc(C[C@H]2c3c(cc(OC)c4c3Oc3cc5c(cc3O4)CCN(C)C5=O)CCN2C)cc1 | 34.8 µM | 22.5 µM | > 50 µM | > 50 µM | 18.2 µM | 21.7 µM | 21.7 µM | 18.3 µM | 13.7 µM | 15.2 µM |  |  |  |  |  |  |  |  |
| COC1(OC)N=C(N)C2(C#N)/C(=N/N(C)C)CC(C)C12C#N (centres undefined) | > 100 µM | > 100 µM | > 100 µM | > 100 µM | > 100 µM | > 100 µM | > 100 µM | > 100 µM | > 100 µM | > 100 µM |  |  |  |  |  |  |  |  |
| COc1ccc(S(=O)(=O)Nc2ccc(-c3csc(N4C(=O)/C(=C/C=C\c5ccccc5)N=C4c4ccccc4)n3)cc2)cc1Cl | > 100 µM | > 100 µM | > 100 µM | > 100 µM | 80.7 µM | > 100 µM | 85.5 µM | > 100 µM | 41.1 µM | 88.4 µM |  |  |  |  |  |  |  |  |
| Clc1ncc(C(Cl)(Cl)Cl)nc1-c1ccccc1 | 30.9 µM | 3.44 µM | 4.11 µM | 5.46 µM | 3.82 µM | 10.9 µM | 6.95 µM | 5.05 µM | 4.5 µM | 7.16 µM |  |  |  |  |  |  |  |  |
| COc1cccc(N2N=C3c4ccccc4-n4c(nc5ccccc54)C3C2N)c1 (centres undefined) | > 100 µM | > 100 µM | > 100 µM | > 100 µM | > 100 µM | > 100 µM | > 100 µM | > 100 µM | > 100 µM | > 100 µM |  |  |  |  |  |  |  |  |
| CN(Cc1nc2c(N)nc(N)nc2nc1N)c1ccc(C(=O)NC(CCC(=O)O)C(=O)O)cc1 (centres undefined) | > 100 µM | > 100 µM | > 100 µM | > 88 µM | > 100 µM | > 100 µM | > 100 µM | > 100 µM | > 100 µM | > 100 µM |  |  |  |  |  |  |  |  |
| Cc1cnc2[nH]c(-c3ccccc3)cc(=O)c2c1 | > 100 µM | > 100 µM | > 100 µM | > 100 µM | > 100 µM | > 100 µM | 0.0595 µM | 0.0671 µM | > 42.2 µM | 0.629 µM |  |  |  |  |  |  |  |  |
| CCC1(O)CN(CCOC)[C@H]2C[C@@H]1C(=O)c1[nH]c3ccccc3c12 (some centres undefined) | > 100 µM | > 100 µM | > 100 µM | > 100 µM | > 100 µM | > 100 µM | > 100 µM | > 100 µM | > 100 µM | > 100 µM |  |  |  |  |  |  |  |  |
| CCOc1cc(C=O)ccc1O | > 100 µM | > 100 µM | > 100 µM | > 100 µM | > 100 µM | > 100 µM | > 100 µM | > 100 µM | > 100 µM | > 100 µM |  |  |  |  |  |  |  |  |
| COC(=O)C(Cc1ccc([N+](=O)[O-])cc1)NC(=O)C(CC(=O)OC(C)(C)C)NC(=O)OC(C)(C)C (centres undefined) (Boc-Asp(OtBu)-[Phe(4-NO2)]-OMe; configuration not given here) | > 100 µM | > 100 µM | > 100 µM | > 100 µM | > 100 µM | 54 µM | 40.6 µM | > 100 µM | > 100 µM | > 100 µM |  |  |  |  |  |  |  |  |
| CC(=O)Oc1ccc2c(c1)c1c(OC(C)=O)c3ccccc3c(OC(C)=O)c1n2Cc1cccc(C)c1 | > 100 µM | > 100 µM | > 100 µM | > 100 µM | > 100 µM | 83.1 µM | 78.3 µM | 79.3 µM | 33.5 µM | > 100 µM |  |  |  |  |  |  |  |  |
| O=C(O)c1ccc(Nc2cnc3ccc(C(F)(F)F)cc3n2)cc1 | > 100 µM | > 100 µM | 32.5 µM | 30.9 µM | 37.3 µM | 43.8 µM | 40 µM | 58.2 µM | 38.9 µM | 41.2 µM |  |  |  |  |  |  |  |  |
| CC(=O)c1nccc2c1c(C)nc1ccccc12 | > 100 µM | > 100 µM | > 100 µM | > 100 µM | > 100 µM | > 100 µM | 96.3 µM | > 100 µM | > 100 µM | > 100 µM |  |  |  |  |  |  |  |  |
| O=C(O)CNC(=O)c1cccc2c(=O)c3ccccc3[nH]c12 | > 100 µM | > 100 µM | > 100 µM | > 100 µM | > 100 µM | > 100 µM | > 100 µM | > 100 µM | > 100 µM | > 100 µM |  |  |  |  |  |  |  |  |
